Laboratory results reported in ChEMBL document CHEMBL2412967, “A FRET-based assay for the discovery of West Nile Virus NS2B-NS3 protease inhibitors” (Bioorg Med Chem Lett, 2013).
Peptide text beside a SMILES is read from it.

Key:
West Nile virus [1] = test: Activity at West Nile Virus NS2B-NS3 protease expressed in Escherichia coli BL21 (DE3) after 1 hr by colorimetric assay
West Nile virus [2] = test: Ratio of kcat to Km for West Nile Virus NS2B-NS3 protease expressed in Escherichia coli BL21 (DE3) after 1 hr by FRET assay
West Nile virus [3] = test: Ratio of kcat to Km for West Nile Virus NS2B-NS3 protease expressed in Escherichia coli BL21 (DE3) after 1 hr by colorimetric assay
West Nile virus [4] = test: Activity at West Nile Virus NS2B-NS3 protease expressed in Escherichia coli BL21 (DE3) after 1 hr by FRET assay

COc1ccc2c(CC(=O)N[C@@H](CCCCN)C(=O)N[C@@H](CCCCN)C(=O)N[C@@H](CCCNC(=N)N)C(=O)NCC(=O)NCC(Nc3ccc([N+](=O)[O-])cc3[N+](=O)[O-])C(=O)N[C@@H](C)C(=O)N[C@@H](CCCCN)C(N)=O)cc(=O)oc2c1 (stereo partly specified) (HELM PEPTIDE1{[COc1ccc2c(CC(=O)[*:2])cc(=O)oc2c1].K.K.R.G.[C[C@H](NC(=O)C(CN[*:1])Nc1ccc([N+](=O)[O-])cc1[N+](=O)[O-])C(=O)N[C@@H](CCCCN)C(N)=O]}$$$$V2.0)
Km (West Nile virus [1]): 69.9 µM | kcat (West Nile virus [1]): 0.263 s⁻¹ | kcat/Km (West Nile virus [2]): 21400 M⁻¹ s⁻¹ | kcat/Km (West Nile virus [3]): 3760 M⁻¹ s⁻¹ | Km (West Nile virus [4]): 3.35 µM | kcat (West Nile virus [4]): 0.0717 s⁻¹
